Reference: PubChem BioAssay AID2610 (Broad Institute, 2010)
Inconclusive results are not listed. Activity calls are given as the source filed them.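 How the source made its calls: active means EC50 no more than tenfold above the top concentration tested, with valid fit and all samples agreeing; inconclusive means flat fit at 30 to 70% inhibition, poor fit, or split samples; inactive means EC50 beyond tenfold the top concentration tested.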

These molecules were tested on BJeLR fibroblast viability, Alamar Blue fluorescence, 48 h (assay: cytotoxicity toward RAS-transformed BJeLR fibroblasts, dose response, cell-based, alamar blue fluorescence, 48 h, cherrypicked samples (AID 2610);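 further: BJ fibroblasts with hTERT plus SV40 large and small T and HRAS V12; EC50 for loss of viable cells so potency reflects cytotoxic compounds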).

Compound	EC50
Cc1nc(N)nc(N)c1/C=C/C(C)(C)c1ccc(Cl)cc1	> 13300 nM (inactive)
CCc1ccc(/C=C2/SC(=S)N(CCC(=O)Nc3cccnc3)C2=O)cc1	2750 nM
Cc1cc(N)c2cc(NC(=O)/C=C/c3ccccc3Cl)ccc2n1	1240 nM
O=S1(=O)C=C(Sc2nc3ccccc3s2)c2ccccc21	316 nM
COCCCN=C1NN=C(c2cc(C)n(Cc3ccco3)c2C)CS1	< 104 nM
COc1cccc(N2C(N)=NC(N)=NC2(C)C)c1	> 13300 nM (inactive)
CCCc1sc(N/N=C/c2ccccn2)nc1-c1ccc(F)cc1	1360 nM
COC(=O)C1CC23C=CCN4CCC5(c6ccccc6NC15C2C)C43 (stereo not given)	< 104 nM
CCN(CC)CCCNC(=O)c1cc(-c2ccccc2)c(N2CCCCC2)s1	> 13300 nM (inactive)
c1ccc(-c2ccc(-c3nc(-c4ccccn4)no3)cc2)cc1	> 13300 nM (inactive)
